Measured values from US10246453B2, “Benzenesulfonamide compounds and their use as therapeutic agents” (Xenon Pharmaceuticals Inc., priority 2016, dated 2019).
Structures can show the parent of a compound that is named as a salt.

What was measured:
NaV1.1 = NaV1.1 (Homo sapiens (Human), UniProt P35498); experiment: Sodium Influx Assay (Flux), NaV1.1; assay type: cell-based; conditions: Trex HEK293 cells, ANG2 dye; arithmetic mean
NaV1.5 = NaV1.5 (Homo sapiens (Human), UniProt Q14524); experiment: Sodium Influx Assay (Flux), NaV1.5; conditions: read-out: Flux NaV1.5 IC50; Trex HEK293 cells, ANG2 dye; arithmetic mean
NaV1.6 = NaV1.6 (Homo sapiens (Human), UniProt Q9UQD0); experiment: Sodium Influx Assay (Flux), NaV1.6; conditions: read-out: Flux NaV1.6 IC50; Trex HEK293 cells, ANG2 dye; arithmetic mean

NaV1.5, sequence (Q14524 other isoform, or with tags, fused parts or gaps): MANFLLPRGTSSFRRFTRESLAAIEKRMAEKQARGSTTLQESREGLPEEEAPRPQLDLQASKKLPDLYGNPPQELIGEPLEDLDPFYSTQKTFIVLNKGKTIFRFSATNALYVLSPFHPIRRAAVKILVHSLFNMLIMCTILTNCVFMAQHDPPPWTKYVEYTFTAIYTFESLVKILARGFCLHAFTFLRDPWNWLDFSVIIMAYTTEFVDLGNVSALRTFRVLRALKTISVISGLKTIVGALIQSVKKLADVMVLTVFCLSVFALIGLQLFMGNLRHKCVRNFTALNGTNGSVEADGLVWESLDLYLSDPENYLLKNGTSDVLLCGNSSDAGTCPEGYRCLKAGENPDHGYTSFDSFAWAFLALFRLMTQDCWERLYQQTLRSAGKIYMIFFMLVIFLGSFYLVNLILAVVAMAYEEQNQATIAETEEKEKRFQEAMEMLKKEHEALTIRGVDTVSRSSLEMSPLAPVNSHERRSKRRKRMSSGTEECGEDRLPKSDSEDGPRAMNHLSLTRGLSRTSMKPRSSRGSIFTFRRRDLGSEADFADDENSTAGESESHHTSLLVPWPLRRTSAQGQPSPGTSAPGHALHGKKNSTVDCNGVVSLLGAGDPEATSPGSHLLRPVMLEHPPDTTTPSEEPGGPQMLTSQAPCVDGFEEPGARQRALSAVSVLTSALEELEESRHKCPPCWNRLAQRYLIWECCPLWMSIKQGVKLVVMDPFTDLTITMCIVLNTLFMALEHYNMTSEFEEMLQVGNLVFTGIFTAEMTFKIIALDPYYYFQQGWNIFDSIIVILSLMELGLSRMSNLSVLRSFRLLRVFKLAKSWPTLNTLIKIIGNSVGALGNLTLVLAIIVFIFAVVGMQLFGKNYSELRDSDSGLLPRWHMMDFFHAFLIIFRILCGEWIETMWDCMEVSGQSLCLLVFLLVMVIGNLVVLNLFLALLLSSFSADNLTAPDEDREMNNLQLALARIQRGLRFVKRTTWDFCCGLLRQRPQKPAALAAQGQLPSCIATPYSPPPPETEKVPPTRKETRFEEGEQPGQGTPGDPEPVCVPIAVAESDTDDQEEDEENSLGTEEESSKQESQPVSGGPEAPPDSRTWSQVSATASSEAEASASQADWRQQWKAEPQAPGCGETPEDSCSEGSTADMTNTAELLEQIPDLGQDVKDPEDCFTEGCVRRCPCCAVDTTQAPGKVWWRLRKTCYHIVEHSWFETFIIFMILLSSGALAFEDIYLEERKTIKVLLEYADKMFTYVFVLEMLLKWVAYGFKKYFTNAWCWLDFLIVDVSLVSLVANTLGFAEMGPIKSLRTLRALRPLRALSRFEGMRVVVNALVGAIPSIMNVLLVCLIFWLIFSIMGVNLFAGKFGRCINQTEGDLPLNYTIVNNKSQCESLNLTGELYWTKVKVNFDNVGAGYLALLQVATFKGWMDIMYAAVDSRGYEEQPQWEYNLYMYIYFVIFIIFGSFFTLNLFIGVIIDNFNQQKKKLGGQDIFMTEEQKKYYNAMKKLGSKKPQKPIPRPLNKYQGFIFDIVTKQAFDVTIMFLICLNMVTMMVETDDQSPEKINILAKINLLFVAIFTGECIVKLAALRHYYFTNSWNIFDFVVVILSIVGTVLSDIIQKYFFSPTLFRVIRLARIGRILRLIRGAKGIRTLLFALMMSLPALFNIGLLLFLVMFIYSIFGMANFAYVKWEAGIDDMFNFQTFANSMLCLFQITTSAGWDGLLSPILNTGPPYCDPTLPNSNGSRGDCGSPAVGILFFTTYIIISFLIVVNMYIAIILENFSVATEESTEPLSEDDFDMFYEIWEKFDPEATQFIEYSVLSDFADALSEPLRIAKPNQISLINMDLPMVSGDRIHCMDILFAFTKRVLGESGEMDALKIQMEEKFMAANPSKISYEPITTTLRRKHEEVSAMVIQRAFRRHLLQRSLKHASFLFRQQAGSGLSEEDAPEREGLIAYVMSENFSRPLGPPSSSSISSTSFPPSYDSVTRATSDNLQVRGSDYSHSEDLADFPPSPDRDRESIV

Row | IC50 (NaV1.1) [µM] | IC50 (NaV1.6) [µM] | SMILES | IC50 (NaV1.5) [µM]
1 | > 30 | 0.285 | Cc1ccc(F)c(CN2CC[C@H](N(C)c3cc(F)c(S(=O)(=O)Nc4cscn4)cc3C)C2)n1 [Example 130, (S)-2-fluoro-4-((1-((3-fluoro-6-methylpyridin-2-yl)methyl)pyrrolidin-3-yl)(methyl)amino)-5-methyl-N-(thiazol-4-yl)benzenesulfonamide] | 24.2
2 | > 30 | 5.63 | O=S(=O)(Nc1nccs1)c1ccc(OC2CCN(Cc3cccnc3)CC2)c(Cl)c1 [Example 64, 3-chloro-4-((1-(pyridin-3-ylmethyl)piperidin-4-yl)oxy)-N-(thiazol-2-yl)benzenesulfonamide] | > 30
3 | > 30 | 2.08 | Cc1cc(S(=O)(=O)Nc2cscn2)c(F)cc1N(C)[C@H]1CCN(Cc2cscn2)C1 [Example 140, (S)-2-fluoro-5-methyl-4-(methyl(1-(thiazol-4-ylmethyl)pyrrolidin-3-yl)amino)-N-(thiazol-4-yl)benzenesulfonamide] | > 30
4 | 27 | 0.708 | Cc1cc(S(=O)(=O)Nc2cscn2)c(F)cc1OC1CCN(Cc2ccccc2)CC1 [Example 239, 4-((1-benzylpiperidin-4-yl)oxy)-2-fluoro-5-methyl-N-(thiazol-4-yl)benzenesulfonamide] | 16.5
5 | 7.06 | 2.44 | O=S(=O)(Nc1cscn1)c1ccc(OC2CCN(C3(c4ccccc4)CC3)CC2)c(Cl)c1 [Example 303, 3-chloro-4-((1-(1-phenylcyclopropyl)piperidin-4-yl)oxy)-N-(thiazol-4-yl)benzenesulfonamide] | 4.62
6 | > 30 | 0.178 | Cc1cc(S(=O)(=O)Nc2cscn2)c(F)cc1O[C@@]1(C)CCN(Cc2ccccc2)C1 [Example 159, (S)-4-((1-benzyl-3-methylpyrrolidin-3-yl)oxy)-2-fluoro-5-methyl-N-(thiazol-4-yl)benzenesulfonamide formate] | > 30
7 | > 30 | 0.41 | Cc1cc(S(=O)(=O)Nc2cscn2)c(F)cc1N(C)[C@H]1CCN(Cc2cc3n(n2)CCCC3)C1 [Example 151, (S)-2-fluoro-5-methyl-4-(methyl(1-((4,5,6,7-tetrahydropyrazolo[1,5-a]pyridin-2-yl)methyl)pyrrolidin-3-yl)amino)-N-(thiazol-4-yl)benzenesulfonamide] | > 30
8 | 6.87 | 1.42 | O=S(=O)(Nc1nccs1)c1ccc(OC2CCN(CCc3ccccc3)CC2)c(Cl)c1 [Example 234, 3-chloro-4-((1-phenethylpiperidin-4-yl)oxy)-N-(thiazol-2-yl)benzenesulfonamide] | 20.7
9 | 3.7 | 0.531 | Cc1cc(S(=O)(=O)Nc2cscn2)c(F)cc1N(C)[C@H]1CCN(Cc2ccc(C(F)(F)F)o2)C1 [Example 142, (S)-2-fluoro-5-methyl-4-(methyl(1-((5-(trifluoromethyl)furan-2-yl)methyl)pyrrolidin-3-yl)amino)-N-(thiazol-4-yl)benzenesulfonamide] | 6.76
10 | 6.3 | 1.36 | O=S(=O)(Nc1nccs1)c1ccc(OC2CCN(Cc3cccc(OC(F)F)c3)CC2)c(Cl)c1 [Example 5, 3-chloro-4-((1-(3-(difluoromethoxy)benzyl)piperidin-4-yl)oxy)-N-(thiazol-2-yl)benzenesulfonamide] | 4.37
11 | 6.44 | 1.69 | Cc1ccc(CN2CC[C@H](N(C)c3cc(F)c(S(=O)(=O)Nc4cscn4)cc3Cl)C2)c(F)c1 [Example 167, (S)-5-chloro-2-fluoro-4-((1-(2-fluoro-4-methylbenzyl)pyrrolidin-3-yl)(methyl)amino)-N-(thiazol-4-yl)benzene-sulfonamide] | 8.85
12 | 4.11 | 5.31 | Cc1cc(S(=O)(=O)Nc2cnsc2)c(F)cc1N(C)[C@H]1CCN(Cc2ccccc2)C1 [Example 307, (S)-4-((1-benzylpyrrolidin-3-yl)(methyl)amino)-2-fluoro-N-(isothiazol-4-yl)-5-methyl benzenesulfonamide formate] | 9.79
13 | > 30 | 6.79 | Cc1cc(S(=O)(=O)Nc2cscn2)c(F)cc1N(C)[C@H]1CCN(Cc2nccs2)C1 [Example 136, (S)-2-fluoro-5-methyl-4-(methyl(1-(thiazol-2-ylmethyl)pyrrolidin-3-yl)amino)-N-(thiazol-4-yl)benzenesulfonamide] | > 30
14 | 26.9 | 1.72 | Cc1cc(S(=O)(=O)Nc2cscn2)c(F)cc1N(C)[C@H]1CCN(Cc2cc3ccccn3n2)C1 [Example 122, (S)-2-fluoro-5-methyl-4-(methyl(1-(pyrazolo[1,5-a]pyridin-2-ylmethyl)pyrrolidin-3-yl)amino)-N-(thiazol-4-yl)benzenesulfonamide] | 24.2
15 | 5.45 | 0.432 | Cc1ccc(F)c(CN2CC[C@H](N(C)c3cc(F)c(S(=O)(=O)Nc4cscn4)cc3Cl)C2)c1 [Example 172, (S)-5-chloro-2-fluoro-4-((1-(2-fluoro-5-methylbenzyl)-pyrrolidin-3-yl)(methyl)amino)-N-(thiazol-4-yl)benzene-sulfonamide 2,2,2-trifluoroacetate] | 4.97
16 | 10.2 | 9.16 | COC(=O)c1cccc(CN2CC[C@H](N(C)c3cc(F)c(S(=O)(=O)Nc4cscn4)cc3Cl)C2)c1 [Example 174, methyl (S)-3-((3-((2-chloro-5-fluoro-4-(N-(thiazol-4-yl)sulfamoyl)-phenyl)(methyl)-amino)pyrrolidin-1-yl)methyl)benzoate] | 16.2
17 | 10.5 | 3.67 | COc1ccc(CN2CCC(Oc3ccc(S(=O)(=O)Nc4nccs4)cc3Cl)CC2)cc1 [Example 48, 3-chloro-4-((1-(4-methoxybenzyl)piperidin-4-yl)oxy)-N-(thiazol-2-yl)benzenesulfonamide] | 7.82
18 | > 30 | 1.85 | O=S(=O)(Nc1cscn1)c1c(F)cc(O[C@H]2CCN(Cc3ccccc3)C2)c(Br)c1F [Example 274, (S)-4-((1-benzylpyrrolidin-3-yl)oxy)-3-bromo-2,6-difluoro-N-(thiazol-4-yl)benzenesulfonamide formate] | 10
19 | > 30 | 27.7 | O=S(=O)(Nc1nccs1)c1ccc(OC2CCN(Cc3ccncc3)CC2)c(Cl)c1 [Example 63, 3-chloro-4-((1-(pyridin-4-ylmethyl)piperidin-4-yl)oxy)-N-(thiazol-2-yl)benzenesulfonamide] | > 30
20 | 7.79 | 3.67 | CN(c1cc(F)c(S(=O)(=O)Nc2cscn2)cc1Cl)[C@H]1CCN(C2Cc3ccccc3C2)C1 [Example 166, (S)-5-chloro-4-((1-(2,3-dihydro-1H-inden-2-yl)pyrrolidin-3-yl)(methyl)amino)-2-fluoro-N-(thiazol-4-yl)benzene-sulfonamide formate] | 10.1
21 | 1.76 | 0.697 | O=S(=O)(Nc1nccs1)c1ccc(N[C@@H]2CCN(Cc3cccc(Cl)c3)C2)c(Cl)c1 [Example 69, (R)-3-chloro-4-((1-(3-chlorobenzyl)pyrrolidin-3-yl)amino)-N-(thiazol-2-yl)benzenesulfonamide] | 6.15
22 | 4.97 | 4.62 | CN(c1cc(F)c(S(=O)(=O)Nc2cscn2)cc1Cl)[C@H]1CCN(CCOCc2ccccc2)C1 [Example 200, (S)-4-((1-(2-(benzyloxy)ethyl)pyrrolidin-3-yl)(methyl)amino)-5-chloro-2-fluoro-N-(thiazol-4-yl)benzenesulfonamide] | 7.21

Row | SMILES | IC50 (NaV1.1) [µM] | IC50 (NaV1.6) [µM] | IC50 (NaV1.5) [µM]
23 | O=S(=O)(Nc1nccs1)c1ccc(O[C@H]2C[C@H]3CC[C@@H](C2)N3Cc2ccccc2)c(Cl)c1 [Example 15, 4-(((1R,3r,5S)-8-benzyl-8-azabicyclo[3.2.1]octan-3-yl)oxy)-3-chloro-N-(thiazol-2-yl)benzenesulfonamide] | 9.23 | 2.57 | 23.9
24 | Cc1nc(CN2CC[C@H](N(C)c3cc(F)c(S(=O)(=O)Nc4cscn4)cc3C)C2)cs1 [Example 110, (S)-2-fluoro-5-methyl-4-(methyl(1-((2-methylthiazol-4-yl)methyl)pyrrolidin-3-yl)amino)-N-(thiazol-4-yl)benzenesulfonamide formate] | > 30 | 0.262 | > 30
25 | C[C@@H]1C[C@@H](Oc2ccc(S(=O)(=O)Nc3nccs3)cc2Cl)CCN1Cc1ccccc1 (relative stereo) [Example 73, 4-((trans-1-benzyl-2-methylpiperidin-4-yl)oxy)-3-chloro-N-(thiazol-2-yl)benzenesulfonamide] | 5.85 | 1.88 | 13.1
26 | CN(c1ccc(S(=O)(=O)Nc2cscn2)c(F)c1Cl)[C@H]1CCN([C@H]2CCc3ccccc32)C1 [Example 247, 3-chloro-4-(((S)-1-((S)-2,3-dihydro-1H-inden-1-yl)pyrrolidin-3-yl)(methyl)amino)-2-fluoro-N-(thiazol-4-yl)benzenesulfonamide 2,2,2-trifluoroacetate] | 6.87 | 0.469 | 14
27 | CCN(c1cc(F)c(S(=O)(=O)Nc2cscn2)cc1C)[C@H]1CCN(Cc2ccccc2)C1 [Example 312, (S)-4-((1-benzylpyrrolidin-3-yl)(ethyl)amino)-2-fluoro-5-methyl-N-(thiazol-4-yl)benzenesulfonamide 2,2,2-trifluoroacetate] | 10.2 | 2.77 | 6.45
